Assay results as given in paper PMC6031733, “Adding a C-terminal Cysteine (CTC) Can Enhance the Bactericidal Activity of Three Different Antimicrobial Peptides” (Frontiers in Microbiology, 2018).
Where two headings read alike, the source gives them in different places. Positions of bridges follow the written chain, without caps; N, C: chain ends. Non-standard residues stand in square brackets, D forms with d. Residues, ends and D or L forms follow the SMILES beside them. No end group written: not given here. *: point of attachment. X1 = CC[C@H](C)CCCCC(=O)*; Dab = NCC[C@H](N)C(=O)O

What was measured:
ICR mice [1] = experiment: In vivo acute toxicity, survival
Description: (§1) To measure in vivo the acute toxicity, 3-week-old male ICR mice (∼20 g) were purchased from BioLASCO (Taiwan). The mice were randomly separated into 6 groups, and were intraperitoneally injected with D-150-177C at concentrations of 20, 40, 60, and 80 mg/kg. A last-line antibiotic, polymyxin B (20 and 50 mg/kg), was used as a control. Each group contained 5 mice. At 1 day post-injection, blood sample was collected from each mouse. The liver function of mice was determined by measuring the ALT level in the blood. The survival rates of injected mice were monitored for 7 days.
(§2) Polymyxins are the last-line antibiotics, but could be toxic at higher dose. We compared the acute toxicity of peptide D-150-177C with polymyxin B using ICR mice. The mice (∼20 g) were i.p. injected with D-150-177C peptide (20–80 mg/kg body weight). Polymyxin B (50 mg/kg body weight) was used as a control antibiotic. […] In contrast, all mice died of polymyxin B at 50 mg/kg.

S. aureus ATCC19636 = assay type: cell-based, Staphylococcus aureus; conditions: for MBC: pH 7.2
Description: (§3) Peptides were diluted in the same buffer. […] All peptides were tested in triplicate. […] Peptides were also diluted in MH broth. […] All peptides were tested in duplicate.

S. aureus ATCC25923 = experiment: Minimum bactericidal concentration (MBC); assay type: cell-based, Staphylococcus aureus; conditions: phosphate buffer pH 7.2, 37°C, 3 h, zero colony, triplicate
Description: as §3

S. aureus ATCC29213 = experiment: Minimum bactericidal concentration (MBC); assay type: cell-based, Staphylococcus aureus; conditions: phosphate buffer pH 7.2, 37°C, 3 h, zero colony, triplicate
Description: as §3

P. aeruginosa ATCC9027 = assay type: cell-based, Pseudomonas aeruginosa
Description: as §3

P. aeruginosa ATCC27853 = experiment: Minimum bactericidal concentration (MBC); assay type: cell-based, Pseudomonas aeruginosa; conditions: phosphate buffer pH 7.2, 37°C, 3 h, zero colony, triplicate
Description: as §3

E. coli ATCC25922 = experiment: Minimum bactericidal concentration (MBC); assay type: cell-based, Escherichia coli; conditions: phosphate buffer pH 7.2, 37°C, 3 h, zero colony, triplicate
Description: as §3

A. baumannii ATCC17978 [2] = assay type: cell-based, Acinetobacter baumannii
Description: as §3

A. baumannii ATCC19606 = experiment: Minimum bactericidal concentration (MBC); assay type: cell-based, Acinetobacter baumannii; conditions: phosphate buffer pH 7.2, 37°C, 3 h, zero colony, triplicate
Description: as §3

A. baumannii ATCC45530 = experiment: Minimum bactericidal concentration (MBC); assay type: cell-based, Acinetobacter baumannii; conditions: A. baumannii ATCC45530 (so in the source); phosphate buffer pH 7.2, 37°C, 3 h; zero colony; triplicate
Description: as §3

A. baumannii ATCC46709 = experiment: Minimum bactericidal concentration (MBC); assay type: cell-based, Acinetobacter baumannii; conditions: A. baumannii ATCC46709 (so in the source); phosphate buffer pH 7.2, 37°C, 3 h; zero colony; triplicate
Description: as §3

[3] = treated mice, all tissues; ref Chen et al., 2013; cited from earlier work
Description: To reduce the cost for D-amino acids in peptide synthesis, we engineered peptides DL-150-177C and LD-150-177C, which contain only approximately 50 ...

S. aureus ATCC 19636 = experiment: Mouse sepsis model, survival; assay type: in vivo; conditions: ICR mice
Description: (§4) We determined the in vivo protection efficacy of peptides in two different mouse infection models. In the mouse sepsis model ([Chen et al., 2016]), 3-week-old male ICR mice (∼20 g) were purchased from BioLASCO (Taiwan). These mice were inoculated intraperitoneally with S. aureus ATCC 19636 (4 × 10^6 CFU/mouse). At 2 h post-inoculation, the mice were randomly separated into 5 groups and received peptides (5 or 10 mg/kg) or the PBS control, respectively. Each group contained 5 mice. Mortality was monitored daily for 7 days following the bacterial inoculation. This experiment was repeated twice. In the mouse lung infection model ([Yang et al., 2016]), 6–8-week-old male C57BL/6JNarl mice (∼27 g) were purchased from National Laboratory Animal Center, Taiwan. The inoculums (3.5 × 10^8 CFU/mouse) were prepared by 1:1 mixing of LB culture and 10% mucin (Sigma). All mice were randomly separated into 3 groups and anesthetized by Isoflurane via inhalation, and inoculated intra-tracheally with colistin-resistant A. baumannii TCGH 46709. Two hours after inoculation, the mice were intraperitoneally injected daily with either colistin (5 mg/kg) ([Fishbain and Peleg, 2010]) or HBcARD derivative peptides (5 or 10 mg/kg), respectively, for three consecutive days. Each group contained 8 mice. Mortality was monitored every 12 h following the bacterial inoculation. This experiment was repeated twice.
The mice (∼20 g) were i.p. (intraperitoneally) inoculated with S. aureus ATCC19636 (4 × 10^6 CFU/mouse), followed by treatments with peptides or the PBS control at 2 h post-inoculation. We monitored the survival rate for 7 days (Figure 2B). All mice treated with PBS (10/10) died at day 1 post-inoculation. […] In contrast, administration of L-150-177C peptide at the same dose protected 70% of mice (7/10) from death (p < 0.05). It appears that the C-terminal cysteine is very critical for the in vivo protection as well. Next, we compared the in vivo protection efficacy of HBcARD 150-177C peptides containing either D-form or L-form arginines in this same model. The protection efficacy of peptide L-150-177C was 30% (3/10) at 5 mg/kg, whereas D-150-177C can protect all mice (10/10) from death at the same dose (Figure 2B).

[4] = test system: colistin-resistant A. baumannii TCGH 46709; experiment: Mouse lung infection model, survival; assay type: in vivo; conditions: C57BL/6JNarl mice, i.t. A. baumannii TCGH 46709 3.5 × 10^8 CFU/mouse, three consecutive days, 16 mice/group, 3 days
Description: as §4
C57BL/6JNarl mice (∼27 g) were anesthetized and intra-tracheally inoculated with A. baumannii (3.5 × 10^8 CFU/mouse). At 2 h post-inoculation, the mice received i.p. injection of either D-150-177C or colistin, respectively, for three consecutive days (1 injection per day).

[5] = test system: colistin-sensitive A. baumannii ATCC17978; experiment: Mouse lung infection model, survival; assay type: in vivo; conditions: C57BL/6JNarl mice, i.t. colistin-sensitive A. baumannii ATCC17978; i.p. daily for three days; data not shown
ICR mice [6] = experiment: In vivo acute toxicity, serum ALT (liver injury)
Description: as §1, §2

K. pneumoniae ATCC13884 = assay type: cell-based, Klebsiella pneumoniae
Description: as §3

A. baumannii ATCC17978 [7] = conditions: A. baumannii ATCC17978 strain
Description: as §3

[8] = S. aureus ATCC19636, 10^6 CFU/ml in 10 mM sodium phosphate, 50 mM NaCl, 37°C, 3 h, plated on MH agar, zero colony, triplicate
[9] = P. aeruginosa ATCC9027, phosphate buffer pH 7.2, 37°C, 3 h, zero colony, triplicate
[10] = A. baumannii ATCC17978, phosphate buffer pH 7.2, 37°C, 3 h, zero colony, triplicate
[11] = S. aureus ATCC19636 4 × 10^6 CFU/mouse i.p., peptide 5 mg/kg at 2 h post-inoculation, 7 days, n = 10/group (Figure 2B)

## polymyxin B [reference compound]
ICR mice [1]; single i.p. 50 mg/kg, 7 days, 5 mice/group
  survival: all mice died

## RRRRSQSPRRRRSC [164-177C]
S. aureus ATCC19636; [8]
  MBC: > 57.2 µg/mL

## RRRGRSPRRRTPSPRRRRSC [150-171C]
S. aureus ATCC19636; [8]
  MBC: > 57.2 µg/mL

## TVVRRRGRSPRRRTPSPRRRRSQSPRRRRSQSRESQC [147-183]
S. aureus ATCC19636; [8]
  MBC: 18.3 µg/mL
S. aureus ATCC25923
  MBC: 18.3 µg/mL
S. aureus ATCC29213
  MBC: 18.3 µg/mL
P. aeruginosa ATCC9027; [9]
  MBC: 9.2 µg/mL
P. aeruginosa ATCC27853
  MBC: 9.2 µg/mL
E. coli ATCC25922
  MBC: 18.3 µg/mL
A. baumannii ATCC17978 [2]; [10]
  MBC: 2.3 µg/mL
A. baumannii ATCC19606
  MBC: 2.3 µg/mL
A. baumannii ATCC45530
  MBC: 2.3 µg/mL
A. baumannii ATCC46709
  MBC: 4.6 µg/mL
[3]
  reduction of bacterial burdens in spleen, liver, and blood: approximately 100 fold

## C[C@@H](O)[C@H](NC(=O)[C@@H](CCCNC(=N)N)NC(=O)[C@@H](CCCNC(=N)N)NC(=O)[C@@H](CCCNC(=N)N)NC(=O)[C@@H]1CCCN1C(=O)[C@H](CO)NC(=O)[C@@H](CCCNC(=N)N)NC(=O)CNC(=O)[C@@H](CCCNC(=N)N)NC(=O)[C@@H](CCCNC(=N)N)NC(=O)[C@H](N)CCCNC(=N)N)C(=O)N1CCC[C@H]1C(=O)N[C@@H](CO)C(=O)N1CCC[C@H]1C(=O)N[C@H](CCCNC(=N)N)C(=O)N[C@H](CCCNC(=N)N)C(=O)N[C@H](CCCNC(=N)N)C(=O)N[C@H](CCCNC(=N)N)C(=O)N[C@@H](CO)C(=O)N[C@@H](CCC(N)=O)C(=O)N[C@@H](CO)C(=O)N1CCC[C@H]1C(=O)N[C@H](CCCNC(=N)N)C(=O)N[C@H](CCCNC(=N)N)C(=O)N[C@H](CCCNC(=N)N)C(=O)N[C@H](CCCNC(=N)N)C(=O)N[C@@H](CO)C(=O)N[C@@H](CS)C(=O)O [D-150-177C] (H-[dR][dR][dR]G[dR]SP[dR][dR][dR]TPSP[dR][dR][dR][dR]SQSP[dR][dR][dR][dR]SC-OH; N-terminus and C-terminus assumed)
S. aureus ATCC 19636; [11]
  survival rate: 100%
S. aureus ATCC 19636; S. aureus sepsis, peptide 5 mg/kg at 2 h post-inoculation, n = 10/group, D-arginine substitution comparison (Figure 4)
  survival rate: protected all mice from death
[4]; 5 mg/kg/day i.p. from 2 h
  survival rate (mice protected from death): 62.5%
[4]; 10 mg/kg/day i.p. from 2 h
  survival rate (mice protected from death): 87.5%
[5]
  survival rate: comparable to that of colistin treatment
ICR mice [1]; i.p., estimated from survival at 20-80 mg/kg
  LD50: ~75 mg/kg
ICR mice [1]; single i.p. 20 mg/kg, 7 days, 5 mice/group
  survival rate: 100%
ICR mice [1]; single i.p. 40 mg/kg, 7 days, 5 mice/group
  survival rate: 100%
ICR mice [1]; single i.p. 60 mg/kg, 7 days, 5 mice/group
  survival rate: 80%
ICR mice [1]; single i.p. 80 mg/kg, 7 days, 5 mice/group
  survival rate: 40%
ICR mice [6]; i.p. 20 mg/kg, serum at day 1
  ALT level compared with polymyxin B at 20 mg/kg: slight increase
ICR mice [6]; i.p. 40 mg/kg, serum at day 1
  ALT level compared with polymyxin B at 20 mg/kg: slight increase
ICR mice [6]; i.p. 60 mg/kg, serum at day 1, P < 0.01
  ALT level compared with polymyxin B at 20 mg/kg: significantly higher
ICR mice [6]; i.p. 60 mg/kg, serum at day 1 post-injection
  average ALT value: less than 100 IU/L

## RRRGRSPRRRTPSPRRRRSQSPRRRRSC [150-177C]
S. aureus ATCC19636; [8]
  MBC: 7.1 µg/mL
S. aureus ATCC25923
  MBC: 7.1 µg/mL
S. aureus ATCC29213
  MBC: 7.1 µg/mL
P. aeruginosa ATCC9027; [9]
  MBC: 7.1 µg/mL
P. aeruginosa ATCC27853
  MBC: 7.1 µg/mL
E. coli ATCC25922
  MBC: 7.1 µg/mL
A. baumannii ATCC17978 [2]; [10]
  MBC: 1.8 µg/mL
A. baumannii ATCC19606
  MBC: 0.9 µg/mL
A. baumannii ATCC45530
  MBC: 1.8 µg/mL
A. baumannii ATCC46709
  MBC: 3.6 µg/mL
S. aureus ATCC 19636; [11]
  survival rate: 30%
S. aureus ATCC 19636; S. aureus ATCC19636 4 × 10^6 CFU/mouse i.p., peptide 10 mg/kg at 2 h post-inoculation, 7 days, n = 10/group (Figure 2B)
  survival rate: 70%

## NAKDYKGAAAEFPKWNKAGGRVLAGLVKRRKC [LysinC]
S. aureus ATCC19636; ATCC19636, 3 h
  MBC: 128 µg/mL
S. aureus ATCC19636; S. aureus
  decrease in MBC relative to parental peptide without C-terminal cysteine: > 8 fold
P. aeruginosa ATCC9027; ATCC9027, 3 h, pH 7.2
  MBC: 16 µg/mL
P. aeruginosa ATCC9027; P. aeruginosa
  decrease in MBC relative to parental peptide without C-terminal cysteine: 4 fold
A. baumannii ATCC17978 [2]; A. baumannii
  decrease in MBC relative to parental peptide without C-terminal cysteine: 32 fold
A. baumannii ATCC17978 [2]; ATCC17978, 3 h, pH 7.2
  MBC: 32 µg/mL
K. pneumoniae ATCC13884; ATCC13884, 3 h, pH 7.2
  MBC: 128 µg/mL
K. pneumoniae ATCC13884; K. pneumonia
  decrease in MBC relative to parental peptide without C-terminal cysteine: > 8 fold

## CC[C@H](C)CCCCC(=O)N[C@@H](CCN)C(=O)N[C@H](C(=O)N[C@@H](CCN)C(=O)N[C@H]1CCNC(=O)[C@H]([C@@H](C)O)NC(=O)[C@H](CCN)NC(=O)[C@H](CCN)NC(=O)[C@H](CC(C)C)NC(=O)[C@@H](CC(C)C)NC(=O)[C@H](CCN)NC1=O)[C@@H](C)O [colistin, reference compound] (X1-[Dab]T[Dab][Dab][Dab][dL]L[Dab][Dab]T; lactam 4-C (inferred); N-terminus assumed)
A. baumannii ATCC17978 [7]
  MIC: around 4 mg/L
[4]; 5 mg/kg/day i.p. from 2 h
  survival rate (mice protected from death): 12.5%

## RRRTPSPRRRRSQSPRRRRSC [157-177C]
S. aureus ATCC19636; [8]
  MBC: > 57.2 µg/mL
